# Source: patent publication US20120165326A1, “DERIVATIVES OF 6-(6-SUBSTITUTED-TRIAZOLOPYRIDAZINE-SULFANYL) 5-FLUORO BENZOTHIAZOLES AND 5-FLUORO BENZIMIDAZOLES, PREPARATION THEREOF, USE THEREOF AS DRUGS, AND USE THEREOF AS MET INHIBITORS” (SANOFI, priority 2009, published 2012)
# Legend:
# [1] = target: T1, MET (Homo sapiens, UniProt P08581); experiment: Test A: HTRF MET test in 96-well format; format: biochemical; set-up: The recombinant DNA His-Tev-MET (956-1390) in pFastBac; His (N, cleaved yes); TEV cleavage site (N); made in house; host or cells: SF21 insect cells (baculovirus, pFastBac); conditions: ATP 10 μM, MET 5 nM
# Description: The recombinant DNA His-Tev-MET (956-1390) in pFastBac (invitrogen) is transfected into insect cells and, after several viral amplification steps, the final baculovirus stock is tested for expression of the protein of interest.
# For the production of autophosphorylated protein, the preceding fractions are incubated for 1 hour at room temperature after addition of ATP 2 mM, MgCl2 2 mM, and Na3VO4 4 mM. After stopping the reaction with 5 mM of EDTA, the reaction mixture is injected onto a HiPrep desalting column (GE HealthCare) pre-equilibrated with buffer A+Na3VO4 4 mM, and the fractions containing the protein of interest (SDS PAGE analysis) are pooled and stored at −80° C. The degree of phosphorylation is checked by mass spectrometry (LC-MS) and by peptide mapping.
# A) Test A: HTRF MET test in 96-well format
# In a final volume of 50 μl of enzymatic reaction, MET 5 nM final is incubated in the presence of the test molecule (for a final concentration range of 0.17 nM to 10 μM, DMSO 3% final) in MOPS 10 mM pH 7.4, DTT 1 mM, 0.01% Tween 20 buffer. The reaction is initiated with the substrate solution to obtain final concentrations of poly-(GAT) 1 μg/ml, ATP 10 μM and MgCl2 5 mM. After incubation for 10 minutes at room temperature, the reaction is stopped with a mix of 30 μl to obtain a final solution of Hepes 50 mM pH 7.5, potassium fluoride 500 mM, 0.1% BSA and EDTA 133 mM in the presence of 80 ng of streptavidin 61SAXLB Cis-Bio Int. and 18 ng of anti-phosphotyrosine Mab PT66-Europium Cryptate per well. After incubation for 2 hours at room temperature, the reading is taken at two wavelengths, 620 nm and 665 nm, on a reader for the TRACE/HTRF technique and the percentage of inhibition is calculated from the 665/620 ratios.
# Target sequence in this assay (P08581 956-1390): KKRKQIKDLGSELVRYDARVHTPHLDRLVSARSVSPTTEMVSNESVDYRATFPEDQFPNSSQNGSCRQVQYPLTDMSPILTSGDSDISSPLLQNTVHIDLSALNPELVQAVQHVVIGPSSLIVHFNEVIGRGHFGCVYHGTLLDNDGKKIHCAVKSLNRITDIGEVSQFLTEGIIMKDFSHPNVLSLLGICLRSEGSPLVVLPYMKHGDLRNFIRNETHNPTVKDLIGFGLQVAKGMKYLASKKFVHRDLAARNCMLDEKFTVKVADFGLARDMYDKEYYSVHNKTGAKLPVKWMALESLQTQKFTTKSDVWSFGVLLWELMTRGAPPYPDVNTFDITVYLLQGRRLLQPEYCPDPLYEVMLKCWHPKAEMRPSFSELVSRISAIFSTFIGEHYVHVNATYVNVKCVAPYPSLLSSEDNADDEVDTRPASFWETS
# [2] = system: HCT116 cells and MKN45 cells; experiment: Test C: Measurement of the cell proliferation via a 14C-thymidine pulse; format: cell-based; conditions: 14C-thymidine incorporation, 96 hours of treatment; cell line (HCT116 or MKN45) not stated
# Description: C) Test C: Measurement of the Cell Proliferation Via a 14C-Thymidine Pulse
# The cells are inoculated in Cytostar 96-well plates in 180 μl for 4 hours at 37° C. and 5% CO2: HCT116 cells at a rate of 2500 cells per well in DMEM medium+10% foetal calf serum+1% L-Glutamine and MKN45 cells at a rate of 7500 cells per well in RPMI medium+10% foetal calf serum+1% L-Glutamine. After these 4 hours of incubation, the products are added in 10 μl as a 20-fold concentrated solution according to the dilution method cited for ELISA. The products are tested at 10 concentrations in duplicate from 10 000 nM to 0.3 nM with an increment of 3.
# After 72 hours of treatment, add 10 μl of 14C-thymidine at 10 μCi/ml to obtain 0.1 μCi per well. The incorporation of 14C-thymidine is measured on a Micro-Beta machine (Perkin-Elmer) after 24 hours of pulse and 96 hours of treatment.
# All the test steps are automated on BIOMEK 2000 or TECAN stations.
# [3] = target: T1, MET; experiment: Test B: Inhibition of autophosphorylation of MET; ELISA technique (pppY1230,1234,1235) in MKN45 cells; format: cell-based; set-up: Inoculated MKN45 cells in 96-well plates; endogenous in cells; host or cells: MKN45 cells; conditions: 1 hour treatment, phosphoMET ELISA
# Description: B) Test B: Inhibition of autophosphorylation of MET; ELISA technique (pppY1230,1234,1235)
# a) Cell lysates: Inoculated MKN45 cells in 96-well plates (Cell coat BD polylysine) to a rate of 20 000 cells/well in 200 μl in RPMI medium+10% FCS+1% L-glutamine. Leave to adhere for 24 hours in an incubator.
# The cells are treated the day after inoculation with the products at six concentrations in duplicate for 1 hour. At least three control wells are treated with the same amount of final DMSO.
# Product dilution: Stock at 10 mM in pure DMSO—range from 10 mM to 30 μM with an increment of 3 in pure DMSO—Intermediate 50-fold dilutions in the culture medium, followed by removal of 10 μl added directly to the cells (200 μl): final range from 10 000 to 30 nM.
# At the end of incubation, delicately remove the supernatant and rinse with 200 μl of PBS. Next, place 100 μl of lysis buffer directly in the wells on ice and incubate at 4° C. for 30 minutes. Lysis buffer: 10 mM Tris-HCl pH 7.4, 100 mM NaCl, 1 mM EDTA, 1 mM EGTA, 1% Triton X-100, 10% glycerol, 0.1% SDS, 0.5% deoxycholate, 20 mM NaF, 2 mM Na3VO4, 1 mM PMSF and anti-protease cocktail.
# The 100 μl of lysates are transferred into a V-bottomed polypropylene plate and ELISA is performed directly or the plate is frozen at −80° C.,
# b) ELISA PhosphoMET SicSource Kit KH00281
# Add 70 μl of kit dilution buffer+30 μL of cell lysates or 30 μl of lysis buffer for the blanks to each well of the kit plate. Incubate for 2 hours with gentle rocking at room temperature.
# Rinse the wells four times with 400 μl of kit washing buffer. Incubate with 100 μl of anti-phospho MET antibody for 1 hour at room temperature.
# Rinse the wells four times with 400 μL of kit washing buffer. Incubate with 100 μl of anti-rabbit HRP antibody for 30 minutes at room temperature (except for the wells with chromogen alone).
# Rinse the wells four times with 400 μl of kit washing buffer. Introduce 100 μl of chromogen and incubate for 30 minutes in the dark at room temperature.
# Stop the reaction with 100 μl of stop solution. Take the reading without delay, at […] 0.1 second on a Wallac Victor plate reader.
# Target sequence in this assay (P08581 25-1390): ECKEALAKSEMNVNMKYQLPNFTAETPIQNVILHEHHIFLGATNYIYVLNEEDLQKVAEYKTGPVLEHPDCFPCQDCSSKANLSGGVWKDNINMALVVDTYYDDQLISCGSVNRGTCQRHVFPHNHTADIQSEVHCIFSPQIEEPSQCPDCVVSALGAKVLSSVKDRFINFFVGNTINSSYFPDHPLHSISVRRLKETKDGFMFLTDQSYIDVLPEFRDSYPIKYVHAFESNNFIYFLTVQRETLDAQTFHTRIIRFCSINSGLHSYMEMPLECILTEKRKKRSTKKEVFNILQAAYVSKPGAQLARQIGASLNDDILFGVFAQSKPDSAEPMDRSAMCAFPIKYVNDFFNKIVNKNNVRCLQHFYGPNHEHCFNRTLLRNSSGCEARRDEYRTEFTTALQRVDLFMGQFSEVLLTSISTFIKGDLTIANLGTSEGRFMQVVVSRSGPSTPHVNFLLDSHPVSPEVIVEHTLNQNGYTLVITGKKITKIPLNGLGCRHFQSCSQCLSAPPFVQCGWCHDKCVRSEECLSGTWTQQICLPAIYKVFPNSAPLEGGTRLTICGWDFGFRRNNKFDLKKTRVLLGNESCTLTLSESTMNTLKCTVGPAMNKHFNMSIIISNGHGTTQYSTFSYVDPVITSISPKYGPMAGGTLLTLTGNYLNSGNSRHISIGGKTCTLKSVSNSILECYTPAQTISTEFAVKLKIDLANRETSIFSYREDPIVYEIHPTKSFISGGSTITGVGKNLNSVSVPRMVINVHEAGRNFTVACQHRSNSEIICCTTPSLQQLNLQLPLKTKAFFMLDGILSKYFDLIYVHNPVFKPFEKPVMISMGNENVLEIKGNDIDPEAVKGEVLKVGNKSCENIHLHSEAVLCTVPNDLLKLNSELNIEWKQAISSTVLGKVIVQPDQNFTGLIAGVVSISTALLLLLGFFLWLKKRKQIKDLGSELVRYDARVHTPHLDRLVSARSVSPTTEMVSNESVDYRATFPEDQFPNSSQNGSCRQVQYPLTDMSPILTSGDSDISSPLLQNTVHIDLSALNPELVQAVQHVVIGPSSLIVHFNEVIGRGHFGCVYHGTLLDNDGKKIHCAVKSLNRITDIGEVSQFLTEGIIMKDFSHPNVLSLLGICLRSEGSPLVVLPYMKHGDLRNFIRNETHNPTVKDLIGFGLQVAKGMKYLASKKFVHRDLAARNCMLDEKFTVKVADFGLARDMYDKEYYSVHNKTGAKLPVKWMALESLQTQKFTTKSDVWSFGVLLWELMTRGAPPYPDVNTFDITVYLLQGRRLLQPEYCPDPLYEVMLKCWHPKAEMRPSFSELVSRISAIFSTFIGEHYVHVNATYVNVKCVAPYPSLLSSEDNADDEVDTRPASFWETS
Compound,IC50 [1] [nM],IC50 [2] [nM],IC50 [3] [nM]
"CCOc1ccc2nnc(Sc3cc4sc(NC(=O)CN5CCN(C6CC6)CC5)nc4cc3F)n2n1 [Example 7, 2-(4-cyclopropylpiperazin-1-yl)-N-{6-[(6-ethoxy[1,2,4]triazolo[4,3-b]pyridazin-3-yl)sulfanyl]-5-fluoro-1,3-benzothiazol-2-yl}acetamide]",< 100,< 1000,< 100
"O=C(CN1CCN(C2CC2)CC1)Nc1nc2cc(F)c(Sc3nnc4ccc(OC5CCC5)nn34)cc2s1 [Example 8, N-(6-{[6-(cyclobutyloxy)[1,2,4]triazolo[4,3-b]pyridazin-3-yl]sulfanyl}-5-fluoro-1,3-benzothiazol-2-yl)-2-(4-cyclopropylpiperazin-1-yl)acetamide]",< 100,< 1000,< 100
"CCOc1ccc2nnc(Sc3cc4sc(NC(=O)CN5CCN(CC)CC5)nc4cc3F)n2n1 [Example 9, N-{6-[(6-ethoxy[1,2,4]triazolo[4,3-b]pyridazin-3-yl)sulfanyl]-5-fluoro-1,3-benzothiazol-2-yl}-2-(4-ethylpiperazin-1-yl)acetamide]",< 100,< 1000,< 100
"CCN1CCN(CC(=O)Nc2nc3cc(F)c(Sc4nnc5ccc(OC6CCC6)nn45)cc3s2)CC1 [Example 10, N-(6-{[6-(Cyclobutyloxy)[1,2,4]triazolo[4,3-b]pyridazin-3-yl]sulfanyl}-5-fluoro-1,3-benzothiazol-2-yl)-2-(4-ethylpiperazin-1-yl)acetamide]",< 100,< 1000,< 100
"O=C(CN1CCN(C2CC2)CC1)Nc1nc2cc(F)c(Sc3nnc4ccc(OC5COC5)nn34)cc2s1 [Example 11, 2-(4-cyclopropylpiperazin-1-yl)-N-(5-fluoro-6-{[6-(oxetan-3-yl-oxy)[1,2,4]triazolo[4,3-b]pyridazin-3-yl]sulfanyl}-1,3-benzothiazol-2-yl)acetamide]",< 500,,< 500

# Further lines, results first:
IC50 [1] [nM],IC50 [2] [nM],IC50 [3] [nM],Compound
< 100,< 1000,< 100,"O=C(NCCN1CCOCC1)Nc1nc2cc(F)c(Sc3nnc4ccc(OC5CCCCC5)nn34)cc2s1 [Example 1, 1-(6-{[6-(Cyclohexyloxy)[1,2,4]triazolo[4,3-b]pyridazin-3-yl]sulfanyl}-5-fluoro-1,3-benzothiazol-2-yl)-3-[2-(morpholin-4-yl)ethyl]urea]"
< 100,< 1000,< 100,"CC(C)(C)OC(=O)Nc1nc2cc(F)c(Sc3nnc4ccc(-c5ccc(F)cc5)nn34)cc2s1 [Example 2, 2-Methylpropan-2-yl (5-fluoro-6-{[6-(4-fluorophenyl)[1,2,4]triazolo[4,3-b]pyridazin-3-yl]sulfanyl}-1,3-benzothiazol-2-yl)carbamate]"
< 100,< 1000,< 100,"Nc1nc2cc(F)c(Sc3nnc4ccc(-c5ccc(F)cc5)nn34)cc2s1 [Example 3, 5-fluoro-6-{[6-(4-fluorophenyl)[1,2,4]triazolo[4,3-b]pyridazin-3-yl]sulfanyl}-1,3-benzothiazol-2-amine]"
< 100,< 1000,< 100,"O=C(NCCN1CCOCC1)Nc1nc2cc(F)c(Sc3nnc4ccc(-c5ccc(F)cc5)nn34)cc2s1 [Example 4, 1-(5-fluoro-6-{[6-(4-fluorophenyl)[1,2,4]triazolo[4,3-b]pyridazin-3-yl]sulfanyl}-1,3-benzothiazol-2-yl)-3-[2-(morpholin-4-yl)ethyl]urea]"
< 100,< 1000,< 100,"O=C(NCCN1CCOCC1)Nc1nc2cc(F)c(Sc3nnc4ccc(NC5CC5)nn34)cc2s1 [Example 5, 1-(6-{[6-(cyclopropylamino)[1,2,4]triazolo[4,3-b]pyridazin-3-yl]sulfanyl}-5-fluoro-1,3-benzothiazol-2-yl)-3-[2-(morpholin-4-yl)ethyl]urea]"
< 100,< 1000,< 100,"O=C(NCCN1CCOCC1)Nc1nc2cc(F)c(Sc3nnc4ccc(NC5CCCCC5)nn34)cc2s1 [Example 6, 1-(6-{[6-(cyclohexylamino)[1,2,4]triazolo[4,3-b]pyridazin-3-yl]sulfanyl}-5-fluoro-1,3-benzothiazol-2-yl)-3-[2-(morpholin-4-yl)ethyl]urea]"
